# Experimental data taken from patent publication EP0742012A2, “Pharmaceutical composition containing substance inhibiting HSP47 production” (priority 1995, dated 1996).
# Assays:
# HSP47 = assay: Amount of HSP47 produced in human cancer cell lines after substance treatment and heat shock, western blotting; format: cell-based; set-up: key to amounts of HSP47 produced: ↓: means that the amounts of HSP47 produced were reduced by the flavonoid-treatment in comparison with the control tests; settings: for amounts of HSP47 produced: vs control
# mice [1] = settings: mouse, in vivo, po
# mice [2] = assay: Acute toxicity test for mice by oral administration
# mouse = settings: in vivo, iv; cited from earlier work
# [3] = colon cancer cell line COLO 205, 100 µM in the medium
# [4] = neuroblastoma cell line SK-N-MC, 100 µM in the medium
# [5] = uterus cancer cell line HeLa S3, 100 µM in the medium
compound,measurement,setting,value
"Cc1c(C)c2c(c(C)c1O)CCC(C)(CCCC(C)CCCC(C)CCCC(C)C)O2 (stereo not drawn) [α-tocopherol, 3,4-dihydro-2,5,7,8-tetramethyl-2-(4,8,12-trimethyltridecyl)-2H-1-benzopyran-6-ol]",HSP47 production,"HSP47; uterus cancer cell line HeLa S3, final concentration 20 µM",inhibits the HSP47 production
(+) -Catechin,amounts of HSP47 produced,HSP47; [3],↓
same,amounts of HSP47 produced,"HSP47; lung cancer cell line H69, 100 µM in the medium",↓
same,amounts of HSP47 produced,HSP47; [4],↓
same,amounts of HSP47 produced,HSP47; [5],↓
C[C@@]12C[C@@]3(O)O[C@@H](O1)[C@]1(COC(=O)c4ccccc4)[C@H]3C[C@@]12O[C@@H]1O[C@H](CO)[C@@H](O)[C@H](O)[C@H]1O [paeoniflorin],HSP47 production,HSP47; uterus cancer cell line HeLa S3,inhibits the HSP47 production
same,toxicity,mice [1],does not have toxicity
same,death,mice [2],does hardly cause death
"O=c1cc(-c2ccccc2)oc2cc(O)c(O)c(O)c12 [baicalein, 5,6,7-trihydroxy-2-phenyl-4H-1-benzopyran-4-one]",amounts of HSP47 produced,"HSP47; uterus cancer cell line HeLa S3, 10 µM in the medium",↓
"COc1cc(C=CC(=O)O)ccc1O [ferulic acid, 4-hydroxy-3-methoxycinnamic acid]",HSP47 production,"HSP47; uterus cancer cell line HeLa S3, final concentration 100 µM",inhibits the HSP47 production
"C[C@@H]1O[C@@H](OC[C@H]2O[C@@H](Oc3c(-c4ccc(O)c(O)c4)oc4cc(O)cc(O)c4c3=O)[C@H](O)[C@@H](O)[C@@H]2O)[C@H](O)[C@H](O)[C@H]1O [rutin, quercetin-3-rutinoside]",amounts of HSP47 produced,HSP47; [4],↓
same,acute toxicity (LD50),mouse,950 mg/kg
"O=c1c(O)c(-c2ccc(O)c(O)c2)oc2cc(O)cc(O)c12 [quercetin, 2-(3,4-dihydroxyphenyl)-3,5,7-trihydroxy-4H-1-benzopyran-4-one]",amounts of HSP47 produced,HSP47; [3],↓
same,amounts of HSP47 produced,"HSP47; kidney cancer cell line ACHN, 100 µM in the medium",↓
same,amounts of HSP47 produced,HSP47; [5],↓
